Tests used:
Male C57BL/6 mice [1] = assay: Food intake in fasted mice after a single intraperitoneal injection (Example 1, 3 different PYY analogues); format: in vivo; conditions: single i.p. injection
Experimental: (§1) Male C57BL/6 mice (20-30 g) were used for all mouse experiments. Mice were individually housed in IVC cages. Animals were randomised by weight and fasted overnight for 16 hrs before intraperitoneal injection at 9 am. Food intake was measured at 1, 2, 3, 4, 6, 8 and 24 hours post injection. All peptide solutions were prepared freshly the morning of the study and injected as 100 ul. All statistics are calculated using a one-way ANOVA with Dunnett's post-test or one-way ANOVA with Bonferroni post-test.
(§2) A control of saline was used.

Male C57BL/6 mice [2] = assay: Food intake in fasted mice, dose response experiment for PYY3-36Lys12Lauryl (Example 2); format: in vivo
Experimental: as §1, §2

## PYY3-36Lys12Lauryl: PYY3-36 with the residue at position 12 replaced with a lysine residue coupled to a lauroyl group, SEQ ID NO: 14
Male C57BL/6 mice [1]; 120 nmol/kg, 24 hour period, fasted mice
  overall reduction in cumulative food intake versus saline control: 6.1%
Male C57BL/6 mice [1]
  persistence of effect on food intake compared with saline, PYY3-36 (30 nmol/kg) and PYY3-36Lys12 (60 and 120 nmol/kg): most sustained effect
Male C57BL/6 mice [2]; 240 nmol/kg, mice
  onset of food intake reduction compared with 60 nmol/kg native PYY3-36: slower onset of food intake reduction
  persistence of food intake reduction compared with 60 nmol/kg native PYY3-36: greater persistence of effect
Male C57BL/6 mice [2]; 60, 120 and 240 nmol/kg, single i.p. injection, 240 greater effect than 120, both greater than 60 nmol/kg
  food consumed in the first, second and third hour: relation to dose: does-response relationship
Male C57BL/6 mice [2]; single i.p. injection, PYY3-36Lys12Lauryl 60, 120, 240 nmol/kg, PYY3-36 30 nmol/kg, FIG. 5
  time at which food intake (in a given time period) becomes greater than in saline control mice: around 6 hours
